The text below walks through data of patent US20080063703A1, “Active Drug Delivery in the Gastrointestinal Tract” (priority 2004, published 2008).

Like-named read-outs stand apart in the source and are kept apart here.

In data set [1] the test system is proabsorptive effect of NO. The settings on record: addition of NOS inhibitors; cited from earlier work.
The test system of data set [2] is rat jejunum. Briefly: In vitro macromolecule permeation of rat jejunum sections with/without electrical stimulation and L-NAME (FIG. 37). It counts as in vitro ADME. On the procedure:
Reference is now made to FIG. 37, which is a graph showing in vitro measurements of macromolecule permeation, measured in accordance with an embodiment of the present invention. Several sections of rat jejunum were prepared, and the permeation of the sections to Leuprolide and Octreotide peptides was measured with and without electrical stimulation, and with and without application of 1 mM N^G-Nitro-L-Arginine methyl ester (L-NAME), a non-specific nitric oxide (NO) synthase (NOS) inhibitor. The electrical stimulation included the following parameters: 18 Hz, 1 ms pulses, and 5 mA (corresponding to a voltage of about 2 V).

The test system of data set [3] is electrically-induced NO synthesis and release. The settings on record: NO synthase inhibitor added; cited from earlier work.
The subject of data set [4] is rat intestine. The settings on record: all regions of the rat intestine; cited from earlier work.
The subject of data set [5] is mouse ileum. The settings on record: addition of NO donors to mouse ileum; cited from earlier work.
Data set [6] has as its system jejunal tissue. Briefly: Octreotide permeation via jejunal tissue in diffusion chamber 500 with LITV pulses (FIGS. 27-36). It counts as in vitro ADME, Wistar rat. The settings on record: for permeation efficiency, effect of pulse cycle: 1 millisecond (FIG. 31); for octreotide permeation vs control group: 3 mA (FIG. 29); for permeation efficiency, effect of electrode material: 1 millisecond (FIG. 34). As to the method:
(§1) Reference is now made to FIG. 26, which is a schematic cross-sectional illustration of an experimental diffusion chamber 500, and FIGS. 27-36, which are graphs showing in vitro experimental results generated in accordance with respective embodiments of the present invention. A number of 300 g Wistar rats were anaesthetized using Ketamine (100 mg/kg) and Xylazine (10 mg/kg). Two 3 cm-long sections 510 of the intestine were removed from each rat and opened along the mesenterial line so that two rectangular pieces of tissue were available from each rat (a single tissue section 510 is shown in FIG. 26). For the experiments described hereinbelow with reference to FIGS. 27-35, the intestinal sections were taken from the upper jejunum, while for the experiment described hereinbelow with reference to FIG. 36, the intestinal sections were taken from the upper jejunum, proximal ileum, and distal ileum. The serosal and muscular layers of the intestinal sections were removed using a microscope cover glass. Each of the intestinal tissue segments was placed on a slide and inserted into diffusion chamber 500.
Diffusion chamber 500 is shaped so as to define a donor cell 520 and an acceptor cell 522, connected by a 28 mm×8 mm window 524. Tissue segment 510 on the slide completely covered window 524. Tissue segment 510 was placed so as to completely cover window 524, thereby separating donor cell 520 and acceptor cell 522. Tissue segment 510 was oriented such that the mucosal side thereof faced donor cell 520, and the serosal side thereof faced acceptor cell 522. Donor cell 520 was filled with 15 ml of Hank's Balanced Salt Solution (HBSS) adjusted to a pH of 7.4 (in mM: 136.9 NaCl, 5.4 KCl, 0.5 MgCl2, 0.4 MgSO4, 4.5 KH2PO4, 0.35 Na2HPO4, 1.0 CaCl2, 4.2 NaHCO3, 5.5 D-Glucose). Acceptor cell 522 was filled with D-Glucose-supplemented Phosphate Buffered Saline (PBS) adjusted to a pH of 7.4 (in mM: 136.9 NaCl, 2.7 KCl, 0.5 MgCl2, 1.5 KH2PO4, 8.1 Na2HPO4, 0.7 CaCl2, 5.5 D-Glucose).
After tissue segment 510 was placed over window 524, the donor cell was divided into two separate compartments 526a and 526b by an electrically-insulating divider 528 positioned to slightly touch tissue segment 510 so that fluid passage between compartments 526a and 526b was slow (if not impossible). (Donor cell 520 was not divided into compartments 526a and 526b in the experiment described hereinbelow with reference to FIG. 33.) The solution was maintained at 37° C. and gassed with 95% O2/5% CO2, supplied via 1 mm ID tubes placed at the bottom of each cell (tubes not shown in FIG. 26).
A single square electrode 530 was placed in each of compartments 526a and 526b of donor cell 520, such that an electrode surface 532 of each electrode was parallel to the surface of tissue segment 510, at a 0.5 mm distance from tissue segment 510 (except for the experiment described hereinbelow with reference to FIG. 32). Electrodes 530 comprised stainless steel (SS316L, 6 mm×6 min) (except for the experiment described hereinbelow with reference to FIG. 34). The distance between the centers of electrode surfaces 532 was 10 mm. After tissue segment 510 was in position over window 524 for 30 minutes, the HBSS in donor cell 520 was replaced with 1 mg/ml octreotide acetate (Sandostatin) containing HBSS.
In each of the experiments described hereinbelow with reference to FIGS. 27-36, beginning upon replacement of the HBSS in donor cell 520 with octreotide, a train of LITV pulses was applied through electrodes 530, and the permeation of octreotide from donor cell 520 to acceptor cell 522 via tissue segment 510 was measured. This train of monophasic rectangular pulses was generated using a Thurlby Thandar Instruments TGP110 pulse generator. The voltage output of the pulse generator was adjusted so that a 3 mA current flowed through the electrodes. An EZ Digital Co. DM330 Digital Multimeter, connected serially to the electrodes, was used to measure current. […]

Data set [7] concerns upper jejunum tissue segments. Briefly: Octreotide permeation via rat upper jejunum tissue segment in diffusion chamber, with or without LITV pulses (FIG. 24). The settings on record: LITV pulses 12 Hz, 1 millisecond, 3 mA vs control without stimulation; 1 mg/ml octreotide acetate, 90-minute period. The format is in vitro ADME, Wistar rat. As to the method: Reference is now made to FIG. 24, which is a graph showing in vitro experimental results measured in accordance with an embodiment of the present invention. A 300 g Wistar rat was anaesthetized using Ketamine (100 mg/kg) and Xylazine (10 mg/kg). Two 3 cm-long sections of the upper jejunum were removed and opened along the lumen so that two rectangular pieces of tissue were available. The serosal and muscular layers were removed using a microscope cover glass. The intestinal tissue segments were placed on slides and inserted into diffusion chambers similar to experimental diffusion chamber 500, described hereinbelow with reference to FIG. 26. […] The tissue segments on the slides completely covered the windows between the donor and acceptor cells. The cells were filled with 15 ml of Hank's Balanced Salt Solution (HBSS) (pH 7.4). The donor cells were then divided into two separate sections with a dividing board slightly touching the tissue so that fluid passage between the two parts of each donor cell was slow (if not impossible). […]
In one of the diffusion chambers (which served as a control), permeation of octreotide via the tissue segment was measured without the application of electrical stimulation. […] The samples were analyzed by HPLC-UV 205 nm spectroscopy (Hewlett-Packard 1100, acetonitril: phosphate buffer (pH 7.4) (40:60), C18 column) for their content of octreotide.

Data set [8] deals with proximal ileum tissue. Briefly: Octreotide permeation via proximal ileum tissue in diffusion chamber 500 with LITV pulses (FIG. 36). It counts as in vitro ADME, Wistar rat. The settings on record: 18 Hz, 3 mA, 1 millisecond vs control, at 7 minutes (FIG. 36). On the procedure: as §1, with “Each of the intestinal tissue segments was placed on a slide and inserted into diffusion chamber 500.” left out
(§2) In each of the experiments described hereinbelow with reference to FIGS. 27-36, beginning upon replacement of the HBSS in donor cell 520 with octreotide, a train of LITV pulses was applied through electrodes 530, and the permeation of octreotide from donor cell 520 to acceptor cell 522 via tissue segment 510 was measured. […]

Data set [9] deals with distal ileum tissue. Briefly: Octreotide permeation via distal ileum tissue in diffusion chamber 500 with LITV pulses (FIG. 36). It counts as in vitro ADME, Wistar rat. The settings on record: 18 Hz, 3 mA, 1 millisecond vs control, at 7 minutes (FIG. 36). On the procedure:
as §1, with “Each of the intestinal tissue segments was placed on a slide and inserted into diffusion chamber 500.” left out
as §2

For the compound `COC(=O)[C@@H](N)CCCNC(=N)N[N+](=O)[O-]` [L-NAME, N^G-Nitro-L-Arginine methyl ester], in data set [1], the “proabsorptive effect of NO” value is given as “significantly reduced”. For the same compound, the “effect of NOS inhibition on peptide permeation vs non-NOS-inhibited groups” value in data set [2] (1 mM L-NAME, with and without stimulation) is listed as “substantially less”.
Regarding `CNC(=N)NCCC[C@H](N)C(=O)O` [L-NMA, N^G-methyl-L-arginine], the “proabsorptive effect of NO” value in data set [1] is given as “significantly reduced”.
Take `N=C(NCCC[C@H](N)C(=O)O)N[N+](=O)[O-]` [L-NNA, N^G-nitro-L-arginine]: the “proabsorptive effect of NO” value in [1] is “significantly reduced”. For the same compound, the “electrically-induced NO synthesis and release” value in data set [3] is recorded as “almost entirely prevented”.
`CCNC(=O)[C@@H]1CCCN1C(=O)[C@H](CCCNC(=N)N)NC(=O)[C@H](CC(C)C)NC(=O)[C@@H](CC(C)C)NC(=O)[C@H](Cc1ccc(O)cc1)NC(=O)[C@H](CO)NC(=O)[C@H](Cc1c[nH]c2ccccc12)NC(=O)[C@H](Cc1c[nH]cn1)NC(=O)[C@@H]1CCC(=O)N1` [Leuprolide]: the “penetration of the peptides” value in data set [2] is recorded as “about 0.6 ug/ml”.
`CC(C)N(CCCN)/[N+]([O-])=N/O` [NOC5]: the absorption of macromolecules entry in data set [4] is on record as “improve absorption of macromolecules”.
Turning to `CNCCCN(C)/[N+]([O-])=N/O` [NOC7], the absorption of macromolecules result in [4] was “improve absorption of macromolecules”.
Take `CCNCCN(CC)/[N+]([O-])=N/O` [NOC12]: the absorption of macromolecules result in data set [4] was “improve absorption of macromolecules”.
As to `CC(=O)N[C@H](C(=O)O)C(C)(C)SN=O` [SNAP, S-nitroso-acetyl-penicillamine], the transepithelial electrical resistance result in data set [5] was “decrease in transepithelial electrical resistance”.
On to `C[C@@H](O)[C@@H]1NC(=O)[C@H](CCCCN)NC(=O)[C@@H](Cc2c[nH]c3ccccc23)NC(=O)[C@H](Cc2ccccc2)NC(=O)[C@@H](NC(=O)[C@H](N)Cc2ccccc2)CSSC[C@@H](C(=O)N[C@H](CO)[C@@H](C)O)NC1=O` [octreotide, octreotide acetate], for which the “magnitude of permeation efficiency, effect of electrode distance from jejunal tissue” value in data set [6] (0.5 mm vs 3 mm, 18 Hz, 3 mA, 1 millisecond, at 15 minutes (FIG. 32)) was “greater at 0.5 mm than at 3 mm”. Besides, the “permeation efficiency, effect of pulse cycle” value in data set [6] (1 pulse per cycle, 18 Hz, 3 mA) was “greatest permeation efficiency”; in data set [6] (increasing number of pulses per cycle (2, 3), 18 Hz, 3 mA), “the permeation efficiency decreased”. Further, the “enhancement ratio, effect of pulse frequency” value in [6] (18 Hz among 5-60 Hz tested, 1 millisecond, 3 mA, at 30 minutes (FIG. 28)) is listed as “greatest enhancement ratio”. In data set [6] (continuous application vs cessation after 10 minutes, 18 Hz, 3 mA, 1 millisecond (FIG. 35)), the “permeation efficiency, effect of cessation of pulse application” value is “substantially greater permeation efficiency”. For the same compound, the “permeation efficiency, effect of electrode insulation” value in data set [6] (electrodes not insulated from each other (without divider 528), 18 Hz, 3 mA, 1 millisecond (FIG. 33)) is recorded as “did not increase permeation efficiency”. The “permeation efficiency in different regions of the intestine” value in data set [6] (jejunal tissue, 18 Hz, 3 mA, 1 millisecond vs control, at 7 minutes (FIG. 36)) is given as “greatest effect of pulse application”; in [8], “increased permeation efficiency”; in data set [9], “positive but less pronounced effect”. The “enhancement ratio, effect of pulse duration” value in [6] (pulse duration 1 millisecond among 0.2-3 milliseconds tested, 18 Hz, 3 mA, at 15 minutes (FIG. 30)) is “greatest enhancement ratio”. Also, the “octreotide permeation (permeation efficiency)” value in data set [6] (pulses 1 millisecond, 18 Hz, 3 mA vs non-stimulated control group (FIG. 27)) is listed as “substantially enhanced octreotide permeation”. In addition, the “octreotide permeation vs control group” value in data set [6] (pulses at 5 Hz, 1 millisecond) is on record as “did not yield a higher octreotide permeation”; in data set [6] (pulses at 60 Hz, 1 millisecond) it was “did not yield a higher octreotide permeation”. Further, the “permeation efficiency, effect of electrode material” value in data set [6] (silver chloride electrodes, 18 Hz, 3 mA) is on record as “did not increase permeation efficiency”; in data set [6] (stainless steel (SS316L) electrodes, 18 Hz, 3 mA) it was “substantially increased permeation efficiency”; in [6] (titanium nitride electrodes, 18 Hz, 3 mA), “did not increase permeation efficiency”. For the same compound, the “permeation of the peptides” value is “about 0.45 ug/ml” in [2] (NOS-inhibited (1 mM L-NAME) non-stimulation group, after 45 minutes); “about 0.45 ug/ml” in [2] (NOS-inhibited (1 mM L-NAME) stimulation group (18 Hz, 1 ms, 5 mA), after 45 minutes); “about 1.45 ug/ml” in [2] (non-NOS-inhibited electrical stimulation group (18 Hz, 1 ms, 5 mA), after 45 minutes). Also, in [2] (non-stimulation, non-NOS-inhibited control group, after 45 minutes), the “penetration of the peptides” value was “about 0.6 ug/ml”. In addition, the “octreotide permeation into acceptor cell” value in [7] is listed as “substantially greater increase in octreotide permeation”.
